According to PubChem BioAssay (NCI):
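1) Cells in 96-well plates. 2) Compound, 48 h, 5 concentrations. 3) Linear interpolation between surrounding doses. 4) Unreached endpoint = highest concentration. GI50: concentration for 50% inhibition of growth. Definition used: TGI = concentration required for complete inhibition of growth.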

Experiments:
Assay in all cases: DTP human tumour cell line panel, 48 h
IGROV1 ovarian = tested on: IGROV1 ovarian
OVCAR-3 ovarian = tested on: OVCAR-3 ovarian
SW-620 colon = tested on: SW-620 colon
MOLT-4 leukemia = tested on: MOLT-4 leukemia
EKVX NSCLC = tested on: EKVX NSCLC
MDA-MB-435 = tested on: MDA-MB-435
SF-539 CNS = tested on: SF-539 CNS
HT29 colon = tested on: HT29 colon
OVCAR-4 ovarian = tested on: OVCAR-4 ovarian
SNB-19 CNS = tested on: SNB-19 CNS
HS 578T breast = tested on: HS 578T breast
TK-10 renal = tested on: TK-10 renal
RPMI-8226 leukemia = tested on: RPMI-8226 leukemia
SR leukemia = tested on: SR leukemia
PC-3 prostate = tested on: PC-3 prostate
MDA-MB-231 breast = tested on: MDA-MB-231 breast
SF-295 CNS = tested on: SF-295 CNS
UO-31 renal = tested on: UO-31 renal
U251 CNS = tested on: U251 CNS
ACHN renal = tested on: ACHN renal
UACC-257 melanoma = tested on: UACC-257 melanoma
LOX IMVI melanoma = tested on: LOX IMVI melanoma
SNB-75 CNS = tested on: SNB-75 CNS
BT-549 breast = tested on: BT-549 breast
HOP-62 NSCLC = tested on: HOP-62 NSCLC
UACC-62 melanoma = tested on: UACC-62 melanoma
NCI-H226 lung = tested on: NCI-H226 lung
NCI/ADR-RES ovarian = tested on: NCI/ADR-RES ovarian
HCT-15 colon = tested on: HCT-15 colon
786-0 renal = tested on: 786-0 renal
OVCAR-5 ovarian = tested on: OVCAR-5 ovarian
HCT-116 colon = tested on: HCT-116 colon
HCC-2998 colon = tested on: HCC-2998 colon
SK-MEL-2 melanoma = tested on: SK-MEL-2 melanoma
HL-60(TB) leukemia = tested on: HL-60(TB) leukemia
MCF7 breast = tested on: MCF7 breast
DU-145 prostate = tested on: DU-145 prostate
M14 melanoma = tested on: M14 melanoma
NCI-H460 lung = tested on: NCI-H460 lung
K-562 leukemia = tested on: K-562 leukemia
HOP-92 NSCLC = tested on: HOP-92 NSCLC
OVCAR-8 ovarian = tested on: OVCAR-8 ovarian
NCI-H522 lung = tested on: NCI-H522 lung
SF-268 CNS = tested on: SF-268 CNS
KM12 colon = tested on: KM12 colon
SK-MEL-28 melanoma = tested on: SK-MEL-28 melanoma
A549 NSCLC = tested on: A549 NSCLC
A498 renal = tested on: A498 renal
T-47D breast = tested on: T-47D breast
SK-OV-3 ovarian = tested on: SK-OV-3 ovarian
SN12C renal = tested on: SN12C renal
MALME-3M melanoma = tested on: MALME-3M melanoma
COLO 205 colon = tested on: COLO 205 colon
NCI-H23 lung = tested on: NCI-H23 lung
CCRF-CEM leukemia = tested on: CCRF-CEM leukemia
SK-MEL-5 melanoma = tested on: SK-MEL-5 melanoma
RXF 393 renal = tested on: RXF 393 renal

SMILES: CCCC(C(=O)Nc1cccc2[nH]cnc12)C(=O)OCC (stereo not drawn)
- TGI (IGROV1 ovarian): > 100 µM
- TGI (OVCAR-3 ovarian): > 100 µM
- TGI (SW-620 colon): > 100 µM
- TGI (MOLT-4 leukemia): > 100 µM
- TGI (EKVX NSCLC): > 100 µM
- TGI (MDA-MB-435): > 100 µM
- TGI (SF-539 CNS): > 100 µM
- TGI (HT29 colon): > 100 µM
- TGI (OVCAR-4 ovarian): > 100 µM
- TGI (SNB-19 CNS): > 100 µM
- TGI (HS 578T breast): > 100 µM
- TGI (TK-10 renal): > 100 µM
- TGI (RPMI-8226 leukemia): > 100 µM
- TGI (SR leukemia): > 100 µM
- TGI (PC-3 prostate): > 100 µM
- TGI (MDA-MB-231 breast): > 100 µM
- TGI (SF-295 CNS): > 100 µM
- TGI (UO-31 renal): > 100 µM
- TGI (U251 CNS): > 100 µM
- TGI (ACHN renal): > 100 µM
- TGI (UACC-257 melanoma): > 100 µM
- TGI (LOX IMVI melanoma): > 100 µM
- TGI (SNB-75 CNS): > 100 µM
- TGI (BT-549 breast): > 100 µM
- TGI (HOP-62 NSCLC): > 100 µM
- TGI (UACC-62 melanoma): > 100 µM
- TGI (NCI-H226 lung): > 100 µM
- TGI (NCI/ADR-RES ovarian): > 100 µM
- TGI (HCT-15 colon): > 100 µM
- TGI (786-0 renal): > 100 µM
- TGI (OVCAR-5 ovarian): > 100 µM
- TGI (HCT-116 colon): > 100 µM
- TGI (HCC-2998 colon): > 100 µM
- TGI (SK-MEL-2 melanoma): > 100 µM
- TGI (HL-60(TB) leukemia): > 100 µM
- TGI (MCF7 breast): > 100 µM
- TGI (DU-145 prostate): > 100 µM
- TGI (M14 melanoma): > 100 µM
- TGI (NCI-H460 lung): > 100 µM
- TGI (K-562 leukemia): > 100 µM
- TGI (HOP-92 NSCLC): > 100 µM
- TGI (OVCAR-8 ovarian): > 100 µM
- TGI (NCI-H522 lung): > 100 µM
- TGI (SF-268 CNS): > 100 µM
- TGI (KM12 colon): > 100 µM
- TGI (SK-MEL-28 melanoma): > 100 µM
- TGI (A549 NSCLC): > 100 µM
- TGI (A498 renal): > 100 µM
- TGI (T-47D breast): > 100 µM
- TGI (SK-OV-3 ovarian): > 100 µM
- TGI (SN12C renal): > 100 µM

SMILES: C=CCN1C(=O)[C@]2(SC1=S)[C@H](c1cccc(Cl)c1)CN(C)[C@]21C(=O)NC2C=CC(Cl)=C[C@H]21 (stereo partly drawn)
- GI50 (IGROV1 ovarian): 2.98 µM
- TGI (IGROV1 ovarian): 16.5 µM
- GI50 (OVCAR-3 ovarian): 3.43 µM
- TGI (OVCAR-3 ovarian): 14.2 µM
- GI50 (SW-620 colon): 2.89 µM
- TGI (SW-620 colon): 11.6 µM
- GI50 (MALME-3M melanoma): 2.88 µM
- TGI (MALME-3M melanoma): 12.7 µM
- GI50 (MOLT-4 leukemia): 2.07 µM
- TGI (MOLT-4 leukemia): 6.82 µM
- GI50 (EKVX NSCLC): 4.54 µM
- TGI (EKVX NSCLC): 24.6 µM
- GI50 (MDA-MB-435): 5.9 µM
- TGI (MDA-MB-435): 21.5 µM
- GI50 (SF-539 CNS): 10.3 µM
- TGI (SF-539 CNS): 25.6 µM
- GI50 (HT29 colon): 1.67 µM
- TGI (HT29 colon): 3.85 µM
- GI50 (COLO 205 colon): 1.78 µM
- TGI (COLO 205 colon): 4.35 µM
- GI50 (OVCAR-4 ovarian): 2.13 µM
- TGI (OVCAR-4 ovarian): 10.2 µM
- GI50 (SNB-19 CNS): 4.83 µM
- TGI (SNB-19 CNS): 16.8 µM
- GI50 (HS 578T breast): 3.6 µM
- TGI (HS 578T breast): 21.2 µM
- GI50 (TK-10 renal): 13 µM
- TGI (TK-10 renal): 26.9 µM
- GI50 (RPMI-8226 leukemia): 1.64 µM
- TGI (RPMI-8226 leukemia): 4.97 µM
- GI50 (SR leukemia): 1.68 µM
- TGI (SR leukemia): 4.48 µM
- GI50 (PC-3 prostate): 2.19 µM
- TGI (PC-3 prostate): 13 µM
- GI50 (MDA-MB-231 breast): 2 µM
- TGI (MDA-MB-231 breast): 8.72 µM
- GI50 (SF-295 CNS): 7.29 µM
- TGI (SF-295 CNS): 21.4 µM
- GI50 (UO-31 renal): 1.85 µM
- TGI (UO-31 renal): 9.06 µM
- GI50 (U251 CNS): 2.08 µM
- TGI (U251 CNS): 4.62 µM
- GI50 (ACHN renal): 2.99 µM
- TGI (ACHN renal): 13.4 µM
- GI50 (UACC-257 melanoma): 12.2 µM
- TGI (UACC-257 melanoma): 35.8 µM
- GI50 (LOX IMVI melanoma): 1.73 µM
- TGI (LOX IMVI melanoma): 3.95 µM
- GI50 (SNB-75 CNS): 2.37 µM
- TGI (SNB-75 CNS): 18.2 µM
- GI50 (BT-549 breast): 2.06 µM
- TGI (BT-549 breast): 8.49 µM
- GI50 (HOP-62 NSCLC): 3.59 µM
- TGI (HOP-62 NSCLC): 16.2 µM
- GI50 (UACC-62 melanoma): 3.7 µM
- TGI (UACC-62 melanoma): 19.1 µM
- GI50 (NCI-H226 lung): 1.59 µM
- TGI (NCI-H226 lung): 3.98 µM
- GI50 (NCI/ADR-RES ovarian): 4.18 µM
- TGI (NCI/ADR-RES ovarian): 21.2 µM
- GI50 (NCI-H23 lung): 6.12 µM
- TGI (NCI-H23 lung): 22 µM
- GI50 (HCT-15 colon): 2.89 µM
- TGI (HCT-15 colon): 13.1 µM
- GI50 (786-0 renal): 1.51 µM
- TGI (786-0 renal): 3.48 µM
- GI50 (OVCAR-5 ovarian): 4.35 µM
- TGI (OVCAR-5 ovarian): 18.1 µM
- GI50 (HCT-116 colon): 2.88 µM
- TGI (HCT-116 colon): 13.9 µM
- GI50 (HCC-2998 colon): 5.05 µM
- TGI (HCC-2998 colon): 19.1 µM
- GI50 (SK-MEL-2 melanoma): 8.13 µM
- TGI (SK-MEL-2 melanoma): 24.2 µM
- GI50 (HL-60(TB) leukemia): 1.33 µM
- TGI (HL-60(TB) leukemia): 3.58 µM
- GI50 (MCF7 breast): 2.68 µM
- TGI (MCF7 breast): 11.7 µM
- GI50 (DU-145 prostate): 4.16 µM
- TGI (DU-145 prostate): 14.6 µM
- GI50 (M14 melanoma): 2.35 µM
- TGI (M14 melanoma): 11.9 µM
- GI50 (NCI-H460 lung): 3.62 µM
- TGI (NCI-H460 lung): 13.6 µM
- GI50 (HOP-92 NSCLC): 3.17 µM
- TGI (HOP-92 NSCLC): 14.9 µM
- GI50 (CCRF-CEM leukemia): 3.25 µM
- TGI (CCRF-CEM leukemia): 11.6 µM
- GI50 (OVCAR-8 ovarian): 4.22 µM
- TGI (OVCAR-8 ovarian): 17.3 µM
- GI50 (NCI-H522 lung): 5.79 µM
- TGI (NCI-H522 lung): 20.6 µM
- GI50 (SF-268 CNS): 6.77 µM
- TGI (SF-268 CNS): 24.6 µM
- GI50 (KM12 colon): 1.99 µM
- TGI (KM12 colon): 6.35 µM
- GI50 (SK-MEL-28 melanoma): 10.9 µM
- TGI (SK-MEL-28 melanoma): 27.8 µM
- GI50 (A549 NSCLC): 3.3 µM
- TGI (A549 NSCLC): 12.9 µM
- GI50 (SK-MEL-5 melanoma): 5.28 µM
- TGI (SK-MEL-5 melanoma): 18.2 µM
- GI50 (A498 renal): 2.7 µM
- TGI (A498 renal): 7.48 µM
- GI50 (RXF 393 renal): 2.14 µM
- TGI (RXF 393 renal): 5.8 µM
- GI50 (T-47D breast): 2.84 µM
- TGI (T-47D breast): 14.7 µM
- GI50 (SK-OV-3 ovarian): 8.36 µM
- TGI (SK-OV-3 ovarian): 29.2 µM
- GI50 (SN12C renal): 1.81 µM
- TGI (SN12C renal): 3.77 µM
